Laboratory results from patent US7649113B2, “Mono, di and tri cyclic compounds useful for lowering IgE concentrations” (The Research Foundation of State University of New York, priority 2003, dated 2010).

How the values were obtained:
IgE production [1] = assay: Suppression of human IgE production in vitro; format: cell-based
[2] = test system: PBMC (peripheral blood mononuclear cells); conditions: patient PBMC; dose dependent manner; cited from earlier work
[3] = test system: normal mouse spleen cells; conditions: cited from earlier work
dogs = conditions: cited from earlier work
mice = conditions: cited from earlier work
IgE production [4] = assay: Suppression of human IgE production in vivo
IgE production [5] = assay: Suppression of murine IgE production in vivo
[6] = test system: allergic steroid dependent asthmatic patients; conditions: oral administration; cited from earlier work
[7] = test system: human whole blood cultures; conditions: physiological doses; cited from earlier work
[8] = test system: inducible nitric oxide synthase (iNOS); conditions: murine macrophages; cited from earlier work
[9] = test system: rheumatoid arthritis (RA) patients; conditions: cited from earlier work

Compound	human IgE production (IgE production [1])	anti-CD40 rhIL-4 mediated in vitro induction of IgE responses [2]	PHA/IL-4 mediated IgE response [3]	severity of osteoarthritis (OA) (dogs)	ability to mount delayed-type hypersensitivity responses (mice)	human IgE production (IgE production [4])	murine IgE production (IgE production [5])	oral corticosteroid requirements [6]	symptoms (A.M. and P.M.) [6]	mitotic responses to phytohemagglutinin [7]	inducible nitric oxide synthase (iNOS) expression [8]	therapy for early RA ([9]; RA patients)	side effects ([9]; mild and moderate RA patients)
C[C@H]1c2cccc(O)c2C(=O)C2=C(O)[C@]3(O)C(=O)C(C(N)=O)=C(O)[C@@H](N(C)C)[C@@H]3[C@@H](O)[C@@H]21 [doxycycline]	suppresses	suppress	suppresses	reduced	inhibit								
CN(C)c1ccc(O)c2c1C[C@H]1C[C@H]3[C@H](N(C)C)C(=O)C(C(N)=O)=C(O)[C@@]3(O)C(=O)C1=C2O [minocycline]	suppresses	suppress		reduced		suppresses	suppresses	decreased	improved their symptoms	inhibits	inhibits	appears to be an effective therapy	no side effects
